The values below come from US20230114728A1 (Venatorx Pharmaceuticals, Inc., priority 2019, published 2023).

Converted amounts (≈) assume the structure as drawn.

The target of one test is T1, E. coli K12 PBP3 (Escherichia coli, UniProt P0AD68).
T1 construct: made in house
The experiment in a line: biochemical. It counts as binding. An outline of the steps: (§1)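 A. baumannii PBP2 (2.5 μM) and PBP3 (0.2 μM) were run in 25 mM Tris pH 8.0 buffer with Tween 20; E. coli PBP3 (1.5 μM) and N. gonorrhoeae PBP2 ([…]) in 50 mM Hepes pH 8.0 buffer.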

For another test, the target named is T2, N. gonorrhoeae PBP2 (Neisseria gonorrhoeae, UniProt P08149).
T2 construct: made in house
The experiment in a line: Bocillin-FL fluorescence polarization competition binding assay, N. gonorrhoeae PBP2. The conditions noted are these: fluorescence polarization competition binding assay using Bocillin-FL; read-out: N. gonorrhoeae PBP2 Potency. An outline of the steps: as §1
For orientation: Polarisation of emitted light reports the rotation of a fluorescent probe.

The subject of test [1] is A. baumannii CDC-0036 OXA-65, and OXA-24. Put plainly: Broth microdilution MIC in iron-depleted CAMHB (IDM). It counts as cell-based. The conditions noted are these: Acinetobacter baumannii, read-out: Minimum Inhibitory Concentration, CDC-0036. An outline of the steps:
(§2)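 Colonies grow 3-5 h in iron-depleted broth at 37° C, are adjusted by OD600 to give 2-8×10^5 CFU/mL, and are added to 2-fold serial compound dilutions. After 16-20 h (Pseudomonas) or 20-24 h (Acinetobacter) at 37° C, the lowest concentration with no visible growth is the MIC.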

Test [2] has as its system P. aeruginosa (ΔmexAB-oprM). The description is as above. The conditions noted are these: Pseudomonas aeruginosa, read-out: Minimum Inhibitory Concentration, P. aeruginosa ΔmexAB-OprM. It counts as cell-based. An outline of the steps:
as §2

For test [3], the system named is P. aeruginosa CDC-0090 producing KPC-5, OXA-50, and PAO. Described as above. It counts as cell-based. The conditions noted are these: Pseudomonas aeruginosa, read-out: Minimum Inhibitory Concentration, P. aeruginosa CDC-0090. An outline of the steps: as §2
For test [4], the system named is P. aeruginosa CDC-0054 producing VIM-4, OXA-50, and PAO. Described as above. It counts as cell-based. The conditions noted are these: Pseudomonas aeruginosa, read-out: Minimum Inhibitory Concentration, P. aeruginosa CDC-0054. An outline of the steps: as §2

T2 sequence (P08149 whole entry): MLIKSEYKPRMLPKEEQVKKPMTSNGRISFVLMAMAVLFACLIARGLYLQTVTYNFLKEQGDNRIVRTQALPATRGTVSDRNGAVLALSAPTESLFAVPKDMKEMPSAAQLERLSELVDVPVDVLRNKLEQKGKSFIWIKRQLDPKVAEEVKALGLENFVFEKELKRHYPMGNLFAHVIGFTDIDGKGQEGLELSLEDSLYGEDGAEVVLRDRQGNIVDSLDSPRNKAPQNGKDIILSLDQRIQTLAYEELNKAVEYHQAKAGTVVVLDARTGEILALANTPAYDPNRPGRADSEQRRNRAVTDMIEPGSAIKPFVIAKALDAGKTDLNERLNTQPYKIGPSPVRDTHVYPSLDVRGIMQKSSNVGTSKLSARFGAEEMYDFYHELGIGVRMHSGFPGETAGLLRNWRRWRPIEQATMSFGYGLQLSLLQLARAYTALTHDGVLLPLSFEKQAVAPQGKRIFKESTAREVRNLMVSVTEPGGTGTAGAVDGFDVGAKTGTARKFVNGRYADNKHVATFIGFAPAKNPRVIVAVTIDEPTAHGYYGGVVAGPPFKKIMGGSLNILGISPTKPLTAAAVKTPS
T1 sequence (P0AD68 1-577): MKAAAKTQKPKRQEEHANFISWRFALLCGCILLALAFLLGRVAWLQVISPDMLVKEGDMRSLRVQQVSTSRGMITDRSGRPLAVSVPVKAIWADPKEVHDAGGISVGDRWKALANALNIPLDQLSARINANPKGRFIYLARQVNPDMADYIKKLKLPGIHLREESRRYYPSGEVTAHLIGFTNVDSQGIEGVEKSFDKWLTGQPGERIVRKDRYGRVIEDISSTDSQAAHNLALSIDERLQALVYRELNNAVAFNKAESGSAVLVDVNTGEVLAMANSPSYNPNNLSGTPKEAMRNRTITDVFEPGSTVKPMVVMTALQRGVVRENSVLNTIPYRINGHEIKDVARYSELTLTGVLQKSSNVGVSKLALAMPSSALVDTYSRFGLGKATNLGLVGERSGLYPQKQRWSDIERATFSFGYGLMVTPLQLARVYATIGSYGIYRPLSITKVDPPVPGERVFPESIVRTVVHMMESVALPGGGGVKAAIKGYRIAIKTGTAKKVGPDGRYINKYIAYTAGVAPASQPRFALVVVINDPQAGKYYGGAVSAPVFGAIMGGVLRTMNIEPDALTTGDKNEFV

In the case of `CCN1CCN(C(=O)N[C@H](C(=O)N[C@H]2Cc3cccc(C(=O)O)c3OB2O)c2ccc(C(=O)O)cc2)C(=O)C1=O` (single isomer, unassigned) [Example 123], the EC50 was less than 30 µM at E. coli K12 PBP3 and less than 10 µM on N. gonorrhoeae PBP2.

Turning to `CCN1CCN(C(=O)N[C@@H](C(=O)N[C@H]2Cc3cccc(C(=O)O)c3OB2O)c2ccc(C(=O)O)cc2)C(=O)C1=O` (single isomer, unassigned) [Example 124], the values for the EC50 at E. coli K12 PBP3 and on N. gonorrhoeae PBP2 were less than 30 µM and less than 10 µM, respectively.

Regarding `CCN1CCN(C(=O)N[C@H](C(=O)N[C@H]2Cc3ccc(F)c(C(=O)O)c3OB2O)c2c(F)cc(O)c(O)c2Cl)C(=O)C1=O` (single isomer, unassigned) [Example 125], the MIC in test [1], in test [2], in test [3] and in test [4] was more than 128 µg/mL throughout. Moreover, at E. coli K12 PBP3, the EC50 was more than 500 µM.

On to `NC1(CN2CCN(C(=O)N[C@@H](C(=O)N[C@H]3Cc4ccc(F)c(C(=O)O)c4OB3O)c3cc(F)c(O)c(O)c3Cl)C(=O)C2=O)CC1` (single isomer, unassigned) [Example 133], for which the MIC in test [1] was 2 to 4 µg/mL (≈ 3.07 to 6.14 µM); in test [2], 0.25 µg/mL (≈ 0.384 µM); in test [3], 0.5 to 1 µg/mL (≈ 0.767 to 1.53 µM); in test [4], 0.5 to 1 µg/mL (≈ 0.767 to 1.53 µM). The EC50 at E. coli K12 PBP3 is 30 to 500 µM.

As for `NC1(CN2CCN(C(=O)N[C@@H](C(=O)N[C@H]3Cc4ccc(F)c(C(=O)O)c4OB3O)c3c(F)cc(O)c(O)c3Cl)C(=O)C2=O)CC1` (single isomer, unassigned) [Example 134], the MIC in test [1] is 8 to 16 µg/mL (≈ 12.3 to 24.5 µM); in test [2] it was 0.25 µg/mL (≈ 0.384 µM); in test [3] it was 2 to 4 µg/mL (≈ 3.07 to 6.14 µM); in test [4], 32 to 64 µg/mL (≈ 49.1 to 98.2 µM). At E. coli K12 PBP3, this compound gave an EC50 of 30 to 500 µM.

For the compound `CCN1CCN(C(=O)N[C@H](C(=O)N[C@H]2Cc3cccc(C(=O)O)c3OB2O)c2ccc(C(=O)O)c(F)c2F)C(=O)C1=O` (single isomer, unassigned) [Example 139], the EC50 on E. coli K12 PBP3 was less than 30 µM; at N. gonorrhoeae PBP2, less than 10 µM.

Regarding `CCN1CCN(C(=O)N[C@@H](C(=O)N[C@H]2Cc3cccc(C(=O)O)c3OB2O)c2ccc(C(=O)O)c(F)c2F)C(=O)C1=O` (single isomer, unassigned) [Example 140], the EC50 was less than 30 µM on E. coli K12 PBP3 and less than 10 µM at N. gonorrhoeae PBP2.

Regarding `CCN1CCN(C(=O)N[C@@H](C(=O)N[C@H]2Cc3cccc(C(=O)O)c3OB2O)c2ccc(C(=O)O)c(F)c2)C(=O)C1=O` (single isomer, unassigned) [Example 146], the EC50 was less than 30 µM on E. coli K12 PBP3 and less than 10 µM at N. gonorrhoeae PBP2.

As for `CCN1CCN(C(=O)N[C@H](C(=O)N[C@H]2Cc3cccc(C(=O)O)c3OB2O)c2ccc(C(=O)O)c(F)c2)C(=O)C1=O` (single isomer, unassigned) [Example 147], the EC50 at E. coli K12 PBP3 is less than 30 µM; on N. gonorrhoeae PBP2 it was less than 10 µM.

For `CCN1CCN(C(=O)N[C@@H](C(=O)N[C@H]2Cc3cccc(C(=O)O)c3OB2O)c2cc(F)c(C(=O)O)cc2Cl)C(=O)C1=O` (single isomer, unassigned) [Example 148], the results for the EC50 on E. coli K12 PBP3 and at N. gonorrhoeae PBP2 were less than 30 µM and less than 10 µM, respectively.

As for `CCN1CCN(C(=O)N[C@H](C(=O)N[C@H]2Cc3cccc(C(=O)O)c3OB2O)c2cc(F)c(C(=O)O)cc2Cl)C(=O)C1=O` (single isomer, unassigned) [Example 149], the figures for the EC50 on E. coli K12 PBP3 and at N. gonorrhoeae PBP2 were 30 to 500 µM and 30 to 100 µM, respectively.

As for `CCN1CCN(C(=O)N[C@@H](C(=O)N[C@H]2Cc3cccc(C(=O)O)c3OB2O)c2ccc(C(=O)O)cc2Cl)C(=O)C1=O` (single isomer, unassigned) [Example 151], the EC50 on E. coli K12 PBP3 was less than 30 µM; on N. gonorrhoeae PBP2, less than 10 µM.

`CCN1CCN(C(=O)N[C@H](C(=O)N[C@H]2Cc3cccc(C(=O)O)c3OB2O)c2ccc(C(=O)O)cc2Cl)C(=O)C1=O` (single isomer, unassigned) [Example 152]: the values for the EC50 on E. coli K12 PBP3 and on N. gonorrhoeae PBP2 were 30 to 500 µM and 10 to 30 µM, respectively.

Turning to `CCN1CCN(C(=O)N[C@@H](C(=O)N[C@H]2Cc3cccc(C(=O)O)c3OB2O)c2ccc(C(=O)O)c(Cl)c2)C(=O)C1=O` (single isomer, unassigned) [Example 154], the EC50 on E. coli K12 PBP3 was less than 30 µM; at N. gonorrhoeae PBP2, less than 10 µM.

Consider `CCN1CCN(C(=O)N[C@H](C(=O)N[C@H]2Cc3cccc(C(=O)O)c3OB2O)c2ccc(C(=O)O)c(Cl)c2)C(=O)C1=O` (single isomer, unassigned) [Example 155], for which the results for the EC50 at E. coli K12 PBP3 and on N. gonorrhoeae PBP2 were less than 30 µM and less than 10 µM, respectively.

Regarding `NCCN1CCN(C(=O)N[C@@H](C(=O)N[C@H]2Cc3cccc(C(=O)O)c3OB2O)c2cc(F)c(O)c(F)c2)C(=O)C1=O` (single isomer, unassigned) [Example 159], the EC50 at E. coli K12 PBP3 was less than 30 µM; at N. gonorrhoeae PBP2 it was less than 10 µM.

With `NCCN1CCN(C(=O)N[C@@H](C(=O)N[C@H]2Cc3cccc(C(=O)O)c3OB2O)c2cc(F)c(O)c(F)c2F)C(=O)C1=O` (single isomer, unassigned) [Example 168], the values for the EC50 at E. coli K12 PBP3 and at N. gonorrhoeae PBP2 were less than 30 µM and less than 10 µM, respectively.

`CCN1CCN(C(=O)NC(C(=O)N[C@H]2Cc3cccc(C(=O)O)c3OB2O)c2cccc(C(=O)O)c2)C(=O)C1=O` (stereo partly drawn) [Example 113, (3R)-3-(2-(3-carboxyphenyl)-2-(4-ethyl-2,3-dioxopiperazine-1-carboxamido)acetamido)-2-hydroxy-3,4-dihydro-2H-benzo[e][1,2]oxaborinine-8-carboxylic acid]: the EC50 on E. coli K12 PBP3 is less than 30 µM; at N. gonorrhoeae PBP2 it was less than 10 µM.

Consider `CCN1CCN(C(=O)NC(C(=O)N[C@H]2Cc3cccc(C(=O)O)c3OB2O)c2cc(F)c(O)c(F)c2F)C(=O)C1=O` (stereo partly drawn) [Example 172, (3R)-3-(2-(4-ethyl-2,3-dioxopiperazine-1-carboxamido)-2-(2,3,5-trifluoro-4-hydroxyphenyl)acetamido)-2-hydroxy-3,4-dihydro-2H-benzo[e][1,2]oxaborinine-8-carboxylic acid], for which the EC50 on E. coli K12 PBP3 is less than 30 µM.

Consider `CCN1CCN(C(=O)NC(C(=O)N[C@H]2Cc3cccc(C(=O)O)c3OB2O)c2ccc(O)c(F)c2F)C(=O)C1=O` (some centres unmarked) [Example 173], for which the EC50 on E. coli K12 PBP3 is less than 30 µM.

For `NCCN1CCN(C(=O)NC(C(=O)N[C@H]2Cc3cccc(C(=O)O)c3OB2O)c2c(F)c(F)c(O)c(F)c2F)C(=O)C1=O` (stereo partly drawn) [Example 174, (3R)-3-(2-(4-(2-aminoethyl)-2,3-dioxopiperazine-1-carboxamido)-2-(2,3,5,6-tetrafluoro-4-hydroxyphenyl)acetamido)-2-hydroxy-3,4-dihydro-2H-benzo[e][1,2]oxaborinine-8-carboxylic acid], the EC50 is less than 30 µM on E. coli K12 PBP3 and less than 10 µM at N. gonorrhoeae PBP2.

As to `CCN1CCN(C(=O)NC(C(=O)N[C@H]2Cc3cccc(C(=O)O)c3OB2O)c2c(F)c(F)c(O)c(F)c2F)C(=O)C1=O` (stereo partly drawn) [Example 175, (3R)-3-(2-(4-ethyl-2,3-dioxopiperazine-1-carboxamido)-2-(2,3,5,6-tetrafluoro-4-hydroxyphenyl)acetamido)-2-hydroxy-3,4-dihydro-2H-benzo[e][1,2]oxaborinine-8-carboxylic acid], the EC50 on E. coli K12 PBP3 was less than 30 µM; at N. gonorrhoeae PBP2, less than 10 µM.

For the compound `CCN1CCN(C(=O)NC(C(=O)N[C@H]2Cc3cccc(C(=O)O)c3OB2O)c2c(F)cc(NS(N)(=O)=O)cc2F)C(=O)C1=O` (stereo partly drawn) [Example 176, (3R)-3-(2-(2,6-difluoro-4-(sulfamoylamino)phenyl)-2-(4-ethyl-2,3-dioxopiperazine-1-carboxamido)acetamido)-2-hydroxy-3,4-dihydro-2H-benzo[e][1,2]oxaborinine-8-carboxylic acid], the EC50 is less than 30 µM at E. coli K12 PBP3 and less than 10 µM on N. gonorrhoeae PBP2.

Regarding `NCCN1CCN(C(=O)NC(C(=O)N[C@H]2Cc3cccc(C(=O)O)c3OB2O)c2c(F)cc(NS(N)(=O)=O)cc2F)C(=O)C1=O` (stereo partly drawn) [Example 177, (3R)-3-(2-(4-(2-aminoethyl)-2,3-dioxopiperazine-1-carboxamido)-2-(2,6-difluoro-4-(sulfamoylamino)phenyl)acetamido)-2-hydroxy-3,4-dihydro-2H-benzo[e][1,2]oxaborinine-8-carboxylic acid], the EC50 at E. coli K12 PBP3 was in the range of 30 to 500 µM; on N. gonorrhoeae PBP2 it was 10 to 30 µM.

In the case of `NCCCN1CCN(C(=O)NC(C(=O)N[C@H]2Cc3ccc(F)c(C(=O)O)c3OB2O)c2c(F)cc(O)cc2F)C(=O)C1=O` (stereo partly drawn) [Example 178, (3R)-3-(2-(4-(3-aminopropyl)-2,3-dioxopiperazine-1-carboxamido)-2-(2,6-difluoro-4-hydroxyphenyl)acetamido)-7-fluoro-2-hydroxy-3,4-dihydro-2H-benzo[e][1,2]oxaborinine-8-carboxylic acid], the EC50 is less than 30 µM at E. coli K12 PBP3 and more than 100 µM at N. gonorrhoeae PBP2.

For the compound `CCN1CCN(C(=O)NC(C(=O)N[C@H]2Cc3cccc(C(=O)O)c3OB2O)c2c(F)cc(N)cc2F)C(=O)C1=O` (stereo partly drawn) [Example 181, (3R)-3-(2-(4-amino-2,6-difluorophenyl)-2-(4-ethyl-2,3-dioxopiperazine-1-carboxamido)acetamido)-2-hydroxy-3,4-dihydro-2H-benzo[e][1,2]oxaborinine-8-carboxylic acid], the results for the EC50 on E. coli K12 PBP3 and on N. gonorrhoeae PBP2 were less than 30 µM and more than 100 µM, respectively.
